From ChEMBL document CHEMBL5390204, “Persephacin Is a Broad-Spectrum Antifungal Aureobasidin Metabolite That Overcomes Intrinsic Resistance in Aspergillus fumigatus” (J Nat Prod, 2023)
Converted amounts (≈) assume the structure as drawn. The source made the active and inactive calls. No cut-off for these calls is given here.

Columns and labels:
Pichia kudriavzevii = test: Antifungal activity against Candida krusei ATCC 6258 (Y-7179) assessed as reduction in fungal growth incubated for 48 hrs by microplate reader analysis; type: functional
Candida albicans [1] = test: Antifungal activity against fluconazole-resistant Candida albicans SC5314 infected in pig cornea assessed as suppression of fungal growth at 0.1 % administered post fungal infection measured after 4 days by microscopic analysis; type: functional, organism-based; settings: time 4.0 day
[2] = Toxicity against human skin model at 10 to 1000 uM; type: tissue-based, Skin of body; settings: dose 10-1000 µM
Aspergillus fumigatus [3] = test: Antifungal activity against Aspergillus fumigatus NRRL5109 infected in pig cornea assessed as suppression of fungal growth at 0.1 % administered post fungal infection measured after 4 days by microscopic analysis; type: functional, organism-based; settings: time 4.0 day
Candida parapsilosis = test: Antifungal activity against Candida parapsilosis 7 assessed as inhibition in fungal growth incubated for 48 hrs by microplate reader analysis; type: functional; settings: Lodderomyces parapsilosis
Saccharomyces cerevisiae = test: Antifungal activity against multidrug-resistant Saccharomyces cerevisiae 400 assessed as inhibition in fungal growth incubated for 48 hrs by microplate reader analysis; type: functional
Aspergillus fumigatus [4] = test: Antifungal activity against Aspergillus fumigatus NRRL6113 assessed as reduction in fungal growth incubated for 48 hrs by microplate reader analysis; type: functional
[5] = Toxicity against human eye model assessed as irritation at 10 to 1000 uM; type: tissue-based; settings: dose 10-1000 µM
Candida albicans [6] = test: Antifungal activity against Candida albicans SC5314 infected in pig cornea assessed as suppression of fungal growth at 0.1 % administered post fungal infection measured after 4 days by microscopic analysis; type: functional, organism-based; settings: time 4.0 day

Compound | MFC (Pichia kudriavzevii) [µM] | MIC80 (Pichia kudriavzevii) [µM] | Activity (Candida albicans [1]) | Activity [2] | Activity (Aspergillus fumigatus [3]) | MIC80 (Candida parapsilosis) [µM] | MIC80 (Saccharomyces cerevisiae) [µM] | MFC (Aspergillus fumigatus [4]) [µM] | MIC80 (Aspergillus fumigatus [4]) [µM] | Activity [5] | Activity (Candida albicans [6])
CC[C@H](C)C[C@H](C)C[C@H](C)C[C@@H]1NC(=O)[C@H](C(C)C)N(C)C(=O)[C@@H]([C@H](C)CC)OC(=O)[C@H](C(C)(C)O)N(C)C(=O)[C@H](CC(C)C)NC(=O)[C@H](C(C)C)N(C)C(=O)[C@H]([C@H](C)CC)NC(=O)[C@@H]2CCCN2C(=O)CN(C)C1=O | 2.5 (≈ 2.69 µg/mL) | 1.3 (≈ 1.4 µg/mL) | Active | Non-Toxic | Active | 2.5 (≈ 2.69 µg/mL) | 2.5 (≈ 2.69 µg/mL) | 5 (≈ 5.38 µg/mL) | 2.5 (≈ 2.69 µg/mL) | Non-Toxic | Active
C[C@@H]1[C@H](O)[C@@H](C)/C=C/C=C/C=C/C=C/C=C/C=C/C=C/[C@H](O[C@@H]2O[C@H](C)[C@@H](O)[C@H](N)[C@@H]2O)C[C@@H]2O[C@](O)(C[C@@H](O)C[C@@H](O)[C@H](O)CC[C@@H](O)C[C@@H](O)CC(=O)O[C@H]1C)C[C@H](O)[C@H]2C(=O)O [AMPHOTERICIN B] | 5 (≈ 4.62 µg/mL) | 2.5 (≈ 2.31 µg/mL) | – | – | – | 2.5 (≈ 2.31 µg/mL) | 1.3 (≈ 1.2 µg/mL) | 10 (≈ 9.24 µg/mL) | 2.5 (≈ 2.31 µg/mL) | – | –
